Data as given in patent US11377473B2, “Albumin-binding prodrugs of auristatin E derivatives” (priority 2017, dated 2022).

Legend:
Dose finding studies = test: Dose finding studies
Experimental: Female immunodeficient NMRI nude mice, from Janvier, France, received 5×10^6-10^7 cultured cancer cell in buffer/Matrigel (1:1) inoculated subcutaneously, until tumors were palpable and had reached the desired volume (for xenograft studies).
Animals were kept in cages (Macrolon Type-II wire-mesh) with temperature maintained at 22±1° C., relative humidity of 50 f 10% and an air change rate of 60-fold per hour. Mice were kept under a 12-hour light/12-hour dark, artificial light cycle. The animals were fed with autoclaved Ssniff NM (Soest, Germany), and had access to sterile filtered and acidified (pH 4.0) tap water which was changed twice weekly. Feed and water were provided ad libitum. […] The health of the animals was examined at the start of the experiment and twice per day during the experiment. Identification used: ear mark and cage labels. Starting on day 0, animals were weighed two or three times per week and mean body weight per group was related to the initial value in percent to calculate the body weight change (BWC). Tumor diameters were determined by a two-dimensional measurement with a caliper on the day of randomization (Day 0) and then twice or three times per week. Tumor volumes were calculated according to the following equation:
Tumor Vol [mm^3]=1 [mm]×w^2 [mm^2]×0.5, where “1” is the length and “w” is width of the tumor. The relative volume of an individual tumor on day X (RTVx) was calculated by dividing the absolute individual tumor volume [mm^3] of the respective tumor on day X (Tx) by the absolute individual tumor volume of the same tumor on the day of randomization multiplied by 100%. Schedules were applied to the extent that animal welfare policies allow. Termination of individual mice was carried out at tumor volume >1500 mm^3 (unilateral) or when ulceration was observed. Statistical comparison was performed with the Mann-Whitney U-test. Dose Finding Studies of Auristatin E and the Albumin-Binding Auristatin E Derivatives AE-Keto-Sulf07 and AE-Ester-Sulf07.
Stock solutions were prepared as follows: • 1) 3 mice per group, 26 g average weight on day of randomization: 0.3, 0.6 or 1.2 mg/kg dose auristatin E TFA salt (AE equiv.) dosed once weekly for 4 weeks on day 0, 6, 13, 20≡0.35-1.41 mg/kg≡7.1-28.3 μg/20 g mouse. Sample preparation: 8.5 mg weighed in a 50 mL vial dissolved in 30.0 mL 25/75 tert-butanol/10 mM sodium phosphate buffer, 5% sucrose—pH 7.0; 0.2-0.8 mL were aliquoted in 2 mL vials depending on the final desired final dose. The vials were frozen for 1 h at −40° C. and lyophilized at −20° C. over ˜36 h and then stoppered. On day of injection, the lyophilized samples were reconstituted with 0.8 mL of 10 mM sodium phosphate buffer, 20% propylene glycol—pH 7.0. • 2) 3 mice per group, 26 g average weight on day of randomization: 1.2 and 2.4 mg/kg AE-Keto-Sulf07 (AE equiv.) dosed twice weekly for 4 weeks ≡1.94-3.87 mg/kg≡38.7 and 77.4 μg/20 g mouse. Sample preparation: 11.0 mg weighed in a 30 mL vial dissolved in 14.2 mL 50/50 tert-butanol/10 mM sodium phosphate buffer, 5% sucrose—pH 7.0; 0.4-0.8 mL were aliquoted in 2 mL vials depending on the final desired final dose. The vials were frozen for 1 h at −40° C. and lyophilized at −20° C. over ˜36 h and then stoppered. On the day of injection, the lyophilized samples were reconstituted with 0.8 mL of 10 mM sodium phosphate buffer, 20% propylene glycol—pH 7.0. • 3) 3 mice per group, 26 g average weight on day of randomization: 1.2, 1.6 or 2.0 mg/kg AE-Ester-Sulf07 (AE equiv.) dosed twice weekly for 4 weeks on day≡2.18-3.64 mg/kg≡43.7-72.8 μg/20 g mouse. Sample preparation: 19.2 mg weighed in a 30 mL vial dissolved in 26.3 mL 50/50 tert-butanol/10 mM sodium phosphate buffer, 5% sucrose—pH 7.0; 0.48-0.8 mL were aliquoted in 2 mL vials depending on the final desired final dose. The vials were frozen for 1 h at −40° C. and lyophilized at −20° C. over ˜36 h and then stoppered.

[1] = test system: human ovarian carcinoma model A2780; test: Human ovarian carcinoma model A2780, large tumors; format: in vivo, NMRI nude mice
Experimental: (§1) Feed and water were provided ad libitum. […] Identification used: ear mark and cage labels. […] Tumor volumes were calculated according to the following equation: […]
(§2) The evaluation of auristatin E and the albumin-binding auristatin E derivative AE-Keto-Sulf07 in a human ovarian carcinoma model A2780 was carried out as described in the general procedure for cell-line-derived xenograft models.
The evaluation of auristatin E and the albumin-binding auristatin E derivative AE-Ester-Sulf07 in a human ovarian carcinoma model A2780 was carried out as described in the general procedure for cell-line-derived xenograft models.

[2] = test system: human ovarian carcinoma model A2780; test: Human ovarian carcinoma model A2780, small tumors; format: in vivo, NMRI nude mice
Experimental: as §1, §2
The evaluation of the albumin-binding auristatin E derivative AE-Ester-Sulf07 in a human ovarian carcinoma model A2780 was carried out as described in the general procedure for cell-line-derived xenograft models.
AE-Ester-Sulf07 was also tested in the same ovarian carcinoma model A2780 with smaller tumors and a different dosing scheme to diminish the side effects of the drug on the skin of the mice. AE-Ester-Sulf07 was dosed at 3.8 mg/kg four times once weekly, showing again a statistically significant improved antitumor effect compared to the control (p<0.01 from day 7 to 14). Mice treated with AE-Ester-Sulf07 in the new dosing regimen achieved partial remission from day 12 until day 35 and complete remission from day 39 until the end of the study on day 70.

[3] = test system: malignant melanoma cancer model A375; test: Human malignant melanoma cancer model A375, small tumors; format: in vivo, NMRI nude mice
Experimental: as §1
The evaluation of auristatin E and the albumin-binding auristatin E derivative AE-Keto-Sulf07 in a human malignant melanoma cancer model A375 was carried out as described in the general procedure for cell-line-derived xenograft models.
Stock solutions were prepared as follows: • 1) 7 mice, 29 g average weight, 135 mm^3 average median tumor volume on day of randomization: 0.3 mg/kg auristatin E TFA salt (AE equiv.) dosed twice weekly for 3 weeks on day 0, 6, 9, 13, 16, 19≡0.35 mg/kg≡7.1 μg/20 g mouse.

[4] = 0.3 mg/kg eight times twice weekly
[5] = 3.0 mg/kg six times twice weekly
[6] = 1.9 mg/kg eight times twice weekly

CC[C@H](C)[C@@H]([C@@H](CC(=O)N1CCC[C@H]1[C@H](OC)[C@@H](C)C(=O)N[C@H](C)[C@@H](O)c1ccccc1)OC)N(C)C(=O)[C@@H](NC(=O)[C@H](C(C)C)N(C)C)C(C)C [auristatin E]
tolerability (Dose finding studies; 0.3 mg/kg once weekly for 4 weeks): well tolerated
tolerability (Dose finding studies; 0.6 mg/kg once weekly, no animal survived after the second injection): high toxicity
tolerability (Dose finding studies; 1.2 mg/kg once weekly, no animal survived after the first injection): high toxicity
maximum tolerated dose (MTD) (Dose finding studies; injected biweekly for four weeks (total of eight injections)): 0.3 mg/kg
antitumor effect [1, 4]: did not achieve any antitumor effect
antitumor effect [2, 4]: did not achieve any antitumor effect
tumor response ([3]; 0.3 mg/kg six times twice weekly, until day 21): stable disease (stable disease >75-125%)

CC[C@H](C)[C@@H]([C@@H](CC(=O)N1CCC[C@H]1[C@H](OC)[C@@H](C)C(=O)N[C@H](C)C(=NNC(=O)c1ccc(NC(=O)CCCCCN2C(=O)C=CC2=O)cc1S(=O)(=O)O)c1ccccc1)OC)N(C)C(=O)[C@@H](NC(=O)[C@H](C(C)C)N(C)C)C(C)C [AE-Keto-Sulf07, 2-(2-((R)-2-((2R,3R)-3-((S)-1-((3R,4S,5S)-4-((S)-2-((S)-2-(dimethylamino)-3-methylbutanamido)-N,3-dimethylbutanamido)-3-methoxy-5-methylheptanoyl)pyrrolidin-2-yl)-3-methoxy-2-methylpropanamido)-1-phenylpropylidene)hydrazine-1-carbonyl)-5-(6-(2,5-dioxo-2,5-dihydro-1H-pyrrol-1-yl)hexanamido)benzenesulfonic acid]
tolerability (Dose finding studies; 6.5 mg/kg biweekly in later xenograft studies, treatment stopped after five injections): above the MTD
tolerability (Dose finding studies; all doses tested (1.2 and 2.4 mg/kg), injected eight times on a biweekly schedule): well tolerated
safe dose (Dose finding studies; biweekly schedule): 4.5 mg/kg
body weight ([1]; 4.5 mg/kg eight times twice weekly): only a slightly reduced body weight growth compared to the control
tumor response ([1]; 4.5 mg/kg eight times twice weekly, day 26 until end of study on day 103): complete remission (complete remission <10%)
p, antitumor effect versus auristatin E ([1]; 4.5 mg/kg versus auristatin E 0.3 mg/kg, eight times twice weekly, day 22 to day 40): < 0.001
tumor response ([2]; 3.0 and 5.0 mg/kg eight times twice weekly, day 9 until end of study on day 60): partial remission (partial remission >10-50%)
p, antitumor efficacy versus auristatin E ([2]; 3.0 and 5.0 mg/kg versus auristatin E 0.3 mg/kg, eight times twice weekly, day 7 to day 29): < 0.01
transient body weight loss ([2]; 3.0 and 5.0 mg/kg, after the first treatment): ~2%
tumor response (transient) ([2]; higher dose 5.0 mg/kg, day 25 to day 51): complete remission (complete remission <10%)
animals lost ([2]; higher dose group 5.0 mg/kg): One mouse from the higher dose group was found dead on day 35
tumor response (transient) ([2]; lower dose 3.0 mg/kg, day 23 to day 35): complete remission (complete remission <10%)
animals lost ([2]; lower dose group 3.0 mg/kg): one from the lower dose group had to be sacrificed on day 42 for general bad conditions
body weight [3, 5]: only a slight reduction in body weight growth compared to the control
side effects [3, 5]: no detectable side effects
tumor response ([3]; 3.0 mg/kg six times twice weekly, day 19 until end of study on day 37): complete remission (complete remission <10%)
p, antitumor efficacy versus auristatin E ([3]; 3.0 mg/kg versus auristatin E 0.3 mg/kg, six injections twice weekly, day 27 to day 37): < 0.01
final tumor volume ([3]; 3.0 mg/kg, day 37): 1 mm^3

2-(2-(1-(4-(((1S,2R)-2-((2R,3R)-3-((S)-1-((3R,4R,5S)-4-((S)-2-((R)-2-(dimethylamino)-3-methylbutanamido)-N,3-dimethylbutanamido)-3-methoxy-5-methylheptanoyl)pyrrolidin-2-yl)-3-methoxy-2-methylpropanamido)-1-phenylpropoxy)carbonyl)phenyl)ethylidene)hydrazine-1-carbonyl)-5-(6-(2,5-dioxo-2,5-dihydro-1H-pyrrol-1-yl)hexanamido)benzenesulfonic acid [AE-Ester-Sulf07]
side effect compared with the other groups (Dose finding studies; 4.0 mg/kg once weekly): lowest side effect
body weight change (Dose finding studies; 2.0, 2.2, 2.4 mg/kg twice per week and 4.0, 4.4, 4.8 mg/kg once per week over four weeks): No body weight change
appearance of skin irritation (Dose finding studies; all groups: 2.0, 2.2, 2.4 mg/kg twice per week and 4.0, 4.4, 4.8 mg/kg once per week): 9 to 14 days
tolerability (Dose finding studies; up to 2.0 mg/kg dosed twice weekly for four weeks): no evident sign of toxicity
animals lost [1, 6]: four animals had to be removed from the study due to tumor necrosis
body weight [1, 6]: no sign of body weight loss compared to the control
tumor response ([1]; 1.9 mg/kg eight times twice weekly, day 19 until day 51): partial remission (partial remission >10-50%)
tumor response ([1]; 1.9 mg/kg eight times twice weekly, day 54 until end of study on day 103): complete remission (complete remission <10%)
p, antitumor efficacy versus auristatin E ([1]; 1.9 mg/kg versus auristatin E 0.3 mg/kg, eight times twice weekly, day 37 to day 40): < 0.001
animals lost ([2]; 3.8 mg/kg four times once weekly): Three AE-Ester-Sulf07 treated mice showed body weight loss and had to be sacrificed on day 59
p, antitumor effect compared to the control ([2]; 3.8 mg/kg four times once weekly, day 7 to 14): < 0.01
tumor response ([2]; 3.8 mg/kg four times once weekly, day 12 until day 35): partial remission (partial remission >10-50%)
tumor response ([2]; 3.8 mg/kg four times once weekly, day 39 until end of study on day 70): complete remission (complete remission <10%)
